Tests used:
[1] = biological target: T1, human mGlu2 receptors (Homo sapiens, UniProt Q14416); experiment: Potentiation of glutamate-induced increase in intracellular calcium with a mGlu2 expressing cell line (FLIPR); format: cell-based; conditions: RGT cells expressing human mGlu2 and Galpha15; with submaximal glutamate (e.g. 1 μM)
T1 construct: expressed in transfected cells; host or cells: RGT cells (co-transfected with rat GLAST, stably transfected with Galpha15)
Protocol: Potentiation of Glutamate-Induced Increase in Intracellular Calcium with a mGlu2 Expressing Cell Line.
Cell lines expressing human mGlu2 receptors are derived as previously described (Desai, Burnett, Mayne, Schoepp, Mol. Pharmacol. 48, 648-657, 1995) and cultured in DMEM with 5% dialyzed fetal bovine serum, 1 mM glutamine, 1 mM sodium pyruvate, 50 μg/mL Geneticin G418, and 0.2 mg/mL hygromycin B. Confluent cultures are passaged weekly. These cells are referred to as RGT cells for Rat Glutamate Transporter, and have been co-transfected with the glutamate/aspartate transporter GLAST. The RGT cell line expressing the mGlu2 receptors is stably transfected with the promiscuous G-protein, Galpha15 to change the signaling pathway to the mGlu2 receptor to one that could be easily measured through release of intracellular calcium. Thus, intracellular calcium levels are monitored before and after the addition of drugs on a Fluorometric Imaging Plate Reader (i.e. FLIPR, Molecular Devices). The following buffer is used throughout as an assay buffer: 10 mM KCl, 138 mM NaCl, 5 mM Ca Cl2, 1 mM MgC2, 4 mM Na H2PO4, 10 mM Glucose, 10 mM HEPES, pH 7.4. Cells that had been plated 48 hours prior at a density of 30-40,000 cells per well in a 96-well plate are loaded with a calcium-sensitive dye for 90 minutes at 25° C. Fluo-3 (2 mM in DMSO, Molecular Probes) are mixed with a equal volume of 10% pluronic acid in DMSO, and diluted to 8 μM into the buffer described above containing 10% fetal bovine serum to make the loading buffer. Following loading of the cells, the loading buffer is removed and replaced with assay buffer prior to drug addition and monitoring on the FLIPR. The resulting signal from the addition of compounds of formula (I) and submaximal concentrations of a glutamate-site agonist (e.g. 1 μM glutamate) is determined by taking the difference of the maximal fluorescent peak height minus the background fluorescence in each well and expressing the results as a percent of the signal seen with a maximal glutamate response (30 μM glutamate, typically about 30-50,000 Relative Fluorescent Units). Least squares curve fitting with a four-parameter equation is then applied to the resulting dose-% response curve to determine the resulting EC50 values.

[2] = biological target: T2, human CysLT1 receptor (Homo sapiens, UniProt Q9Y271); experiment: Antagonism of LTD4-induced increase in intracellular calcium within a CysLT1 receptor expressing cell line (FLIPR); format: cell-based; conditions: AV12-664 cells expressing human CysLT1; 6 nM LTD4; read-out: antagonism of CysLT1 receptors, IC50
T2 construct: expressed in transfected cells; host or cells: AV12-664 (ATCC-9595)
T2 sequence (Q9Y271 1-337): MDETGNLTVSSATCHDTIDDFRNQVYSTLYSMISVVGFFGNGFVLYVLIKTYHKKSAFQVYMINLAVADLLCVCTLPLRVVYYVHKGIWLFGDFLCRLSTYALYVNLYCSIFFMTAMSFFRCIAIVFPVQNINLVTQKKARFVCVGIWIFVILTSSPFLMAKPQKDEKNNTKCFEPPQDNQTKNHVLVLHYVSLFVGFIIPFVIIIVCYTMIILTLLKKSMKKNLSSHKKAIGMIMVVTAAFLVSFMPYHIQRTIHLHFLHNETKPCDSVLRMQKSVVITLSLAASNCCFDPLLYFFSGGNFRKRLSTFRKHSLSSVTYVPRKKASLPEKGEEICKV
Protocol: Antagonism of Cysteinyl-leukotriene D4 (LTD4)-Induced Increase in Intracellular Calcium within a Cysteinyl-Leukotriene 1 (CysLT1) Receptor Expressing Cell Line.
Cell lines expressing the human CysLT1 receptor [AV12-664 (ATCC-9595)] are derived and maintained in culture media: DMEM with 5% dialyzed fetal bovine serum, 1 mM glutamine, and 1 mM sodium pyruvate. Confluent cultures are passaged weekly. Intracellular calcium levels are monitored in the CysLT1-expressing cells with the addition of LTD4, with or without prior exposure to the compounds being tested as antagonists with a Fluorometric Imaging Plate Reader (FLIPR, Molecular Devices). The following buffer is used throughout as an assay buffer: Hanks Buffered Saline Solution without phenol red (GIBCO), with 10 mM HEPES pH 7.4. Cells that had been plated 48 hours prior at a density of 20-25,000 cells per well in a 96-well plate are loaded with a calcium-sensitive dye for 90 minutes at 25° C. Fluo-3 (2 mM in DMSO, Molecular Probes) is mixed with an equal volume of 10% pluronic acid in DMSO, and diluted to 8 μM in the buffer described above containing 10% fetal bovine serum to make the loading buffer. Following loading of the cells, the buffer is removed and replaced with assay buffer prior to drug addition and monitoring on the FLIPR for several minutes. The resulting signal from the addition of 6 nM LTD4 (provides approximately 90% of the maximal signal with 25 nM LTD4) is determined by taking the difference of the maximal fluorescent peak height minus the background fluorescence in each well and expressing the results as a percent of the signal seen without pretreatment of the test compound(s). Least squares curve fitting with a four-parameter equation is applied to the resulting dose-% inhibition curve to determine the resulting IC50 values.

T1 sequence (Q14416 19-872): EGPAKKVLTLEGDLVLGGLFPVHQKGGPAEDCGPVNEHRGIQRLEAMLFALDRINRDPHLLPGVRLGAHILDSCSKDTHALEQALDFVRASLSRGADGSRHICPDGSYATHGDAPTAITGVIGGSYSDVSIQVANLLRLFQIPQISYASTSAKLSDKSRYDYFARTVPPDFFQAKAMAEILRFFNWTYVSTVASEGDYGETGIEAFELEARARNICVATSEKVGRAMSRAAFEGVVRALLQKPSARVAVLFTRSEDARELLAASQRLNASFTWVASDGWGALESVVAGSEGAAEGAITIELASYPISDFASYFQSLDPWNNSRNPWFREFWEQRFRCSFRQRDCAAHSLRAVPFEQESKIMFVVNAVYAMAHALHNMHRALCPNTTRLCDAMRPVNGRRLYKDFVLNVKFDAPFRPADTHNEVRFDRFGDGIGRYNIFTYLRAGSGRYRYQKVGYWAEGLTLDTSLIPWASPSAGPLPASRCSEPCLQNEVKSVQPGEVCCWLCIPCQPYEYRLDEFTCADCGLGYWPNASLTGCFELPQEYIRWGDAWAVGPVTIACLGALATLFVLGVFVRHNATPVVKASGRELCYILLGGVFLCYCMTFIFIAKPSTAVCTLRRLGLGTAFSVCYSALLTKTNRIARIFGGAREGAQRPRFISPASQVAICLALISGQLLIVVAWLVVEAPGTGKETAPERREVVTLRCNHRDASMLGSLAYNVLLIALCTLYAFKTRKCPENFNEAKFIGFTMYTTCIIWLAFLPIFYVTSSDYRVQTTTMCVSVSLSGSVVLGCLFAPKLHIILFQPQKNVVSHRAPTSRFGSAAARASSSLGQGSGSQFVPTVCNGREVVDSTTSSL

EC50 [1] | IC50 [2] | SMILES
< 0.35 µM | < 0.15 µM | CC(=O)c1ccc(OCc2cccc(Oc3cc(-c4nn[nH]n4)ccn3)c2)c(C(F)(F)F)c1O [Example 27, 1-(2-Hydroxy-4-{3-[4-(2H-tetrazol-5-yl)-pyridin-2-yloxy]-benzyloxy}-3-trifluoromethyl-phenyl)-ethanone]
< 0.35 µM | < 0.15 µM | CC(=O)c1ccc(OCc2ccc(Oc3cc(-c4nn[nH]n4)ccn3)cc2)c(C)c1O [Example 21, 1-(2-Hydroxy-3-methyl-4-{4-[4-(1H-tetrazol-5-yl)-pyridin-2-yloxy]-benzyloxy}-phenyl)-ethanone]
< 0.35 µM | < 0.15 µM | CCCc1c(OCc2cccc(Sc3cc(C(=O)O)ccn3)c2)ccc(C(C)=O)c1O [Example 84, 6-(3-((4-acetyl-3-hydroxy-2-propylphenoxy)methyl)phenylthio)isonicotinic acid]
< 0.35 µM |  | CC(=O)c1ccc(OCc2ccc(Oc3cccc(-c4nn[nH]n4)c3)cc2)c(C)c1O [Example 22, 1-(2-Hydroxy-3-methyl-4-{4-[3-(1H-tetrazol-5-yl)-phenoxy]-benzyloxy}-phenyl)-ethanone]
